The test system of assay [1] is E. coli (ATCC® 10536). Briefly: Microdilution test, MIC in TSB. The assay is classed as cell-based, Escherichia coli. To be noted: microdilution (CLSI) in TSB, 37 °C for 24 h, MIC = reduction of 100 % in bacterial growth, median (n = 3), each in duplicate, NI = no inhibition. The method, then:
(§1) The maintenance of the antimicrobial activity after peptide LyeTx I modifications with HYNIC was evaluated by microdilution test, according to the Clinical and Laboratory Standards Institute. Bacterial strains of reference, S. aureus (ATCC® 6538) and E. coli (ATCC® 10536), were grown on tryptic soy agar at 37 °C for 18 h. Then, 0.5 McFarland scale bacterial suspensions (10^8 CFU^.mL^−1) were prepared on tryptic soy broth (TSB). The readouts were carried by determination of minimum inhibitory concentration (MIC), defined as a reduction of 100 % in bacterial growth post-incubation with the peptide LyeTx I derivatives at 37 °C for 24 h. LyeTx I obtained by chemical synthesis and without the coupled chelating agent was used as treatment control. Only TSB (no bacterial suspension and no peptide) was used as negative control. TSB plus bacterial suspension (no peptide) were used as positive control. MIC was expressed as median (n = 3). Each replicate was performed with a different bacterial colony, in duplicate.
In general terms: In broth dilution the organism is exposed to a series of concentrations in liquid medium.

For assay [2], the system named is S. aureus (ATCC® 6538). Briefly: Microdilution test, MIC in TSB. The assay is classed as cell-based, Staphylococcus aureus. To be noted: microdilution (CLSI) in TSB, 37 °C for 24 h, MIC = reduction of 100 % in bacterial growth, median (n = 3), each in duplicate, NI = no inhibition. On the procedure:
as §1

Assay [3] has as its system E. coli. To be noted: different assay conditions and other bacterial strains; cited from earlier work. The source says: (§2) However, different assay conditions and other bacterial strains were employed, which can explain the slight differences in the MIC obtained in this study. […] On the other hand, the peptide HYNIC-LyeTx I derivative (N- ...
Assay [4] relates to S. aureus. To be noted: different assay conditions and other bacterial strains; cited from earlier work.
Description: as §2

Where no end group is shown, it is not given here.

Consider one substance from publication PMC4841036, “Synthesis and antimicrobial evaluation of two peptide LyeTx I derivatives modified with the chelating agent HYNIC for radiolabeling with technetium-99m” (The Journal of Venomous Animals and Toxins Including …, 2016).

With IWLTALKFLGKNLGKHLAKQQLAKL-NH2 [LyeTx I], the “Minimum inhibitory concentration (MIC)” value in assay [1] and in assay [2] was 5.52 μmol^.L^−1 throughout. Moreover, the MIC in assay [3] is listed as 7.81 μmol^.L^−1; in assay [4], 3.79 μmol^.L^−1.
